Experiments:
Experiment in all cases: relative viability (nuclei count vs DMSO), 5 days (fraction); higher = more cells survive
GSK126 + Crizotinib = compound: CC[C@H](C)N1C=C(C2=C(C=C(C=C21)C3=CN=C(C=C3)N4CCNCC4)C(=O)NCC5=C(C=C(NC5=O)C)C)C [GSK126] + C[C@@H](Oc1cc(-c2cnn(C3CCNCC3)c2)cnc1N)c1c(Cl)ccc(F)c1Cl [Crizotinib] (partner 1 µM)
Procedure, shortened: (§1)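 Lung cancer cell lines, seeded in 1536-well plates, were treated the following day by pin tool with a single drug or with five library-drug doses (not always all listed) in √10 steps on top of a fixed anchor-drug dose. Cells were fixed and nuclei stained in one step after 5 days, and nuclei were counted. Relative viability is the nuclei count for treated wells divided by that for vehicle wells, reported as medians of duplicate plates.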

MLN4924 + Luminespib = compound: NS(=O)(=O)OC[C@@H]1C[C@@H](n2ccc3c(N[C@H]4CCc5ccccc54)ncnc32)C[C@@H]1O [MLN4924] + CCNC(=O)c1noc(-c2cc(C(C)C)c(O)cc2O)c1-c1ccc(CN2CCOCC2)cc1 [Luminespib] (partner 0.01 µM)
Procedure, shortened: as §1

MLN4924 + Crizotinib = compound: NS(=O)(=O)OC[C@@H]1C[C@@H](n2ccc3c(N[C@H]4CCc5ccccc54)ncnc32)C[C@@H]1O [MLN4924] + C[C@@H](Oc1cc(-c2cnn(C3CCNCC3)c2)cnc1N)c1c(Cl)ccc(F)c1Cl [Crizotinib] (partner 1 µM)
Procedure, shortened: as §1

MLN4924 + Pemetrexed = compound: NS(=O)(=O)OC[C@@H]1C[C@@H](n2ccc3c(N[C@H]4CCc5ccccc54)ncnc32)C[C@@H]1O [MLN4924] + Nc1nc2[nH]cc(CCc3ccc(C(=O)N[C@@H](CCC(=O)O)C(=O)O)cc3)c2c(=O)[nH]1 [Pemetrexed] (partner 0.2 µM)
Procedure, shortened: as §1

## 201T
GSK126 + Crizotinib; first compound 0.08 µM
  relative viability: 1.1
GSK126 + Crizotinib; first compound 0.253 µM
  relative viability: 1.06
GSK126 + Crizotinib; first compound 0.8 µM
  relative viability: 1.03
GSK126 + Crizotinib; first compound 2.53 µM
  relative viability: 0.93
GSK126 + Crizotinib; first compound 8 µM
  relative viability: 1.09
MLN4924 + Luminespib; first compound 0.04 µM
  relative viability: 1.15
MLN4924 + Luminespib; first compound 0.1265 µM
  relative viability: 0.916
MLN4924 + Luminespib; first compound 0.4 µM
  relative viability: 0.887
MLN4924 + Luminespib; first compound 1.265 µM
  relative viability: 0.384
MLN4924 + Luminespib; first compound 4 µM
  relative viability: 0.29
MLN4924 + Crizotinib; first compound 0.04 µM
  relative viability: 1.05
MLN4924 + Crizotinib; first compound 0.1265 µM
  relative viability: 0.994
MLN4924 + Crizotinib; first compound 0.4 µM
  relative viability: 0.984
MLN4924 + Crizotinib; first compound 1.265 µM
  relative viability: 0.401
MLN4924 + Crizotinib; first compound 4 µM
  relative viability: 0.391
MLN4924 + Pemetrexed; first compound 0.04 µM
  relative viability: 0.291
MLN4924 + Pemetrexed; first compound 0.1265 µM
  relative viability: 0.312
MLN4924 + Pemetrexed; first compound 0.4 µM
  relative viability: 0.315
MLN4924 + Pemetrexed; first compound 1.265 µM
  relative viability: 0.287
MLN4924 + Pemetrexed; first compound 4 µM
  relative viability: 0.257

## A549
GSK126 + Crizotinib; first compound 0.08 µM
  relative viability: 0.925
GSK126 + Crizotinib; first compound 0.253 µM
  relative viability: 0.677
GSK126 + Crizotinib; first compound 0.8 µM
  relative viability: 0.709
GSK126 + Crizotinib; first compound 2.53 µM
  relative viability: 0.807
GSK126 + Crizotinib; first compound 8 µM
  relative viability: 0.652
MLN4924 + Crizotinib; first compound 0.04 µM
  relative viability: 0.772
MLN4924 + Crizotinib; first compound 0.1265 µM
  relative viability: 0.634
MLN4924 + Crizotinib; first compound 0.4 µM
  relative viability: 0.416
MLN4924 + Crizotinib; first compound 1.265 µM
  relative viability: 0.0489
MLN4924 + Crizotinib; first compound 4 µM
  relative viability: 0.0552

## A-427
GSK126 + Crizotinib; first compound 0.08 µM
  relative viability: 0.898
GSK126 + Crizotinib; first compound 0.253 µM
  relative viability: 1.01
GSK126 + Crizotinib; first compound 0.8 µM
  relative viability: 0.857
GSK126 + Crizotinib; first compound 2.53 µM
  relative viability: 0.856
GSK126 + Crizotinib; first compound 8 µM
  relative viability: 0.84
MLN4924 + Luminespib; first compound 0.04 µM
  relative viability: 0.465
MLN4924 + Luminespib; first compound 0.1265 µM
  relative viability: 0.245
MLN4924 + Luminespib; first compound 0.4 µM
  relative viability: 0.263
MLN4924 + Luminespib; first compound 1.265 µM
  relative viability: 0.178
MLN4924 + Luminespib; first compound 4 µM
  relative viability: 0.216
MLN4924 + Crizotinib; first compound 0.04 µM
  relative viability: 0.4
MLN4924 + Crizotinib; first compound 0.1265 µM
  relative viability: 0.239
MLN4924 + Crizotinib; first compound 0.4 µM
  relative viability: 0.243
MLN4924 + Crizotinib; first compound 1.265 µM
  relative viability: 0.149
MLN4924 + Crizotinib; first compound 4 µM
  relative viability: 0.182
MLN4924 + Pemetrexed; first compound 0.04 µM
  relative viability: 0.611
MLN4924 + Pemetrexed; first compound 0.1265 µM
  relative viability: 0.466
MLN4924 + Pemetrexed; first compound 0.4 µM
  relative viability: 0.333
MLN4924 + Pemetrexed; first compound 1.265 µM
  relative viability: 0.247
MLN4924 + Pemetrexed; first compound 4 µM
  relative viability: 0.273

## ABC-1
GSK126 + Crizotinib; first compound 0.08 µM
  relative viability: 1.06
GSK126 + Crizotinib; first compound 0.253 µM
  relative viability: 1.16
GSK126 + Crizotinib; first compound 0.8 µM
  relative viability: 1.23
GSK126 + Crizotinib; first compound 2.53 µM
  relative viability: 1.17
GSK126 + Crizotinib; first compound 8 µM
  relative viability: 0.937
MLN4924 + Luminespib; first compound 0.04 µM
  relative viability: 1.14
MLN4924 + Luminespib; first compound 0.1265 µM
  relative viability: 0.548
MLN4924 + Luminespib; first compound 0.4 µM
  relative viability: 0.306
MLN4924 + Luminespib; first compound 1.265 µM
  relative viability: 0.184
MLN4924 + Luminespib; first compound 4 µM
  relative viability: 0.24
MLN4924 + Crizotinib; first compound 0.04 µM
  relative viability: 0.901
MLN4924 + Crizotinib; first compound 0.1265 µM
  relative viability: 0.29
MLN4924 + Crizotinib; first compound 0.4 µM
  relative viability: 0.132
MLN4924 + Crizotinib; first compound 1.265 µM
  relative viability: 0.0913
MLN4924 + Crizotinib; first compound 4 µM
  relative viability: 0.223

## BEN
GSK126 + Crizotinib; first compound 0.08 µM
  relative viability: 0.892
GSK126 + Crizotinib; first compound 0.253 µM
  relative viability: 0.87
GSK126 + Crizotinib; first compound 0.8 µM
  relative viability: 0.832
GSK126 + Crizotinib; first compound 2.53 µM
  relative viability: 0.823
GSK126 + Crizotinib; first compound 8 µM
  relative viability: 0.671
MLN4924 + Luminespib; first compound 0.04 µM
  relative viability: 0.292
MLN4924 + Luminespib; first compound 0.1265 µM
  relative viability: 0.201
MLN4924 + Luminespib; first compound 0.4 µM
  relative viability: 0.27
MLN4924 + Luminespib; first compound 1.265 µM
  relative viability: 0.138
MLN4924 + Luminespib; first compound 4 µM
  relative viability: 0.158
MLN4924 + Crizotinib; first compound 0.04 µM
  relative viability: 0.73
MLN4924 + Crizotinib; first compound 0.1265 µM
  relative viability: 0.38
MLN4924 + Crizotinib; first compound 0.4 µM
  relative viability: 0.272
MLN4924 + Crizotinib; first compound 1.265 µM
  relative viability: 0.172
MLN4924 + Crizotinib; first compound 4 µM
  relative viability: 0.17
MLN4924 + Pemetrexed; first compound 0.04 µM
  relative viability: 0.602
MLN4924 + Pemetrexed; first compound 0.1265 µM
  relative viability: 0.884
MLN4924 + Pemetrexed; first compound 0.4 µM
  relative viability: 0.455
MLN4924 + Pemetrexed; first compound 1.265 µM
  relative viability: 0.28
MLN4924 + Pemetrexed; first compound 4 µM
  relative viability: 0.227

## CAL-12T
GSK126 + Crizotinib; first compound 0.08 µM
  relative viability: 0.805
GSK126 + Crizotinib; first compound 0.253 µM
  relative viability: 0.67
GSK126 + Crizotinib; first compound 0.8 µM
  relative viability: 0.699
GSK126 + Crizotinib; first compound 2.53 µM
  relative viability: 0.398
GSK126 + Crizotinib; first compound 8 µM
  relative viability: 0.441
MLN4924 + Luminespib; first compound 0.04 µM
  relative viability: 0.488
MLN4924 + Luminespib; first compound 0.1265 µM
  relative viability: 0.56
MLN4924 + Luminespib; first compound 0.4 µM
  relative viability: 0.262
MLN4924 + Luminespib; first compound 1.265 µM
  relative viability: 0.192
MLN4924 + Luminespib; first compound 4 µM
  relative viability: 0.307
MLN4924 + Crizotinib; first compound 0.04 µM
  relative viability: 0.638
MLN4924 + Crizotinib; first compound 0.1265 µM
  relative viability: 0.665
MLN4924 + Crizotinib; first compound 0.4 µM
  relative viability: 0.284
MLN4924 + Crizotinib; first compound 1.265 µM
  relative viability: 0.248
MLN4924 + Crizotinib; first compound 4 µM
  relative viability: 0.134
MLN4924 + Pemetrexed; first compound 0.04 µM
  relative viability: 1.06
MLN4924 + Pemetrexed; first compound 0.1265 µM
  relative viability: 1.1
MLN4924 + Pemetrexed; first compound 0.4 µM
  relative viability: 0.67
MLN4924 + Pemetrexed; first compound 1.265 µM
  relative viability: 0.636
MLN4924 + Pemetrexed; first compound 4 µM
  relative viability: 0.224

## COR-L23
GSK126 + Crizotinib; first compound 0.08 µM
  relative viability: 0.663
GSK126 + Crizotinib; first compound 0.253 µM
  relative viability: 0.559
GSK126 + Crizotinib; first compound 0.8 µM
  relative viability: 0.659
GSK126 + Crizotinib; first compound 2.53 µM
  relative viability: 0.611
GSK126 + Crizotinib; first compound 8 µM
  relative viability: 0.713
MLN4924 + Luminespib; first compound 0.04 µM
  relative viability: 0.67
MLN4924 + Luminespib; first compound 0.1265 µM
  relative viability: 0.569
MLN4924 + Luminespib; first compound 0.4 µM
  relative viability: 0.42
MLN4924 + Luminespib; first compound 1.265 µM
  relative viability: 0.174
MLN4924 + Luminespib; first compound 4 µM
  relative viability: 0.139
MLN4924 + Crizotinib; first compound 0.04 µM
  relative viability: 0.588
MLN4924 + Crizotinib; first compound 0.1265 µM
  relative viability: 0.567
MLN4924 + Crizotinib; first compound 0.4 µM
  relative viability: 0.431
MLN4924 + Crizotinib; first compound 1.265 µM
  relative viability: 0.136
MLN4924 + Crizotinib; first compound 4 µM
  relative viability: 0.0871
MLN4924 + Pemetrexed; first compound 0.04 µM
  relative viability: 0.193
MLN4924 + Pemetrexed; first compound 0.1265 µM
  relative viability: 0.199
MLN4924 + Pemetrexed; first compound 0.4 µM
  relative viability: 0.168
MLN4924 + Pemetrexed; first compound 1.265 µM
  relative viability: 0.163
MLN4924 + Pemetrexed; first compound 4 µM
  relative viability: 0.132

## COR-L 105
GSK126 + Crizotinib; first compound 0.08 µM
  relative viability: 0.859
GSK126 + Crizotinib; first compound 0.253 µM
  relative viability: 0.935
GSK126 + Crizotinib; first compound 0.8 µM
  relative viability: 0.783
GSK126 + Crizotinib; first compound 2.53 µM
  relative viability: 0.687
GSK126 + Crizotinib; first compound 8 µM
  relative viability: 0.62
MLN4924 + Luminespib; first compound 0.04 µM
  relative viability: 0.494
MLN4924 + Luminespib; first compound 0.1265 µM
  relative viability: 0.553
MLN4924 + Luminespib; first compound 0.4 µM
  relative viability: 0.283
MLN4924 + Luminespib; first compound 1.265 µM
  relative viability: 0.201
MLN4924 + Luminespib; first compound 4 µM
  relative viability: 0.236
MLN4924 + Crizotinib; first compound 0.04 µM
  relative viability: 0.802
MLN4924 + Crizotinib; first compound 0.1265 µM
  relative viability: 0.472
MLN4924 + Crizotinib; first compound 0.4 µM
  relative viability: 0.344
MLN4924 + Crizotinib; first compound 1.265 µM
  relative viability: 0.194
MLN4924 + Crizotinib; first compound 4 µM
  relative viability: 0.222
MLN4924 + Pemetrexed; first compound 0.04 µM
  relative viability: 0.901
MLN4924 + Pemetrexed; first compound 0.1265 µM
  relative viability: 0.914
MLN4924 + Pemetrexed; first compound 0.4 µM
  relative viability: 0.557
MLN4924 + Pemetrexed; first compound 1.265 µM
  relative viability: 0.305
MLN4924 + Pemetrexed; first compound 4 µM
  relative viability: 0.363

## Calu-6
GSK126 + Crizotinib; first compound 0.08 µM
  relative viability: 0.906
GSK126 + Crizotinib; first compound 0.253 µM
  relative viability: 0.749
GSK126 + Crizotinib; first compound 0.8 µM
  relative viability: 0.806
GSK126 + Crizotinib; first compound 2.53 µM
  relative viability: 0.844
GSK126 + Crizotinib; first compound 8 µM
  relative viability: 0.759
MLN4924 + Crizotinib; first compound 0.04 µM
  relative viability: 0.677
MLN4924 + Crizotinib; first compound 0.1265 µM
  relative viability: 0.426
MLN4924 + Crizotinib; first compound 0.4 µM
  relative viability: 0.197
MLN4924 + Crizotinib; first compound 1.265 µM
  relative viability: 0.0922
MLN4924 + Crizotinib; first compound 4 µM
  relative viability: 0.0977
